Several values for one entry are separate records, joined by “and”; a condition that tells them apart may be missing. Equal values may be shown once.
Experiments:
Z-138 cells = test: Z-138 cell proliferation, CTG reagent, 3-day treatment, single agents and combination (CompuSyn synergy analysis); assay type: cell-based; details: for % Inhibition in proliferation: 3 days
Description: Z-138 cells were treated with serial dilutions of Compound-44A (CDK7 inhibitor), serial dilutions of venetoclax individually and in combination for 3 days. The effect of 3-day compound treatment on cell proliferation was measured using CTG reagent. Percentage inhibition of cell proliferation in individual (Compound-44A, venetoclax) and combination treatments (Compound-44A+venetoclax) were analyzed using CompuSyn software to assess synergy.

MCF-7 cells = test: MCF-7 cell proliferation, CTG reagent, 6-day treatment, single agents and combination (CompuSyn synergy analysis); assay type: cell-based
Description: The effect of 6-day compound treatment on cell proliferation was measured using CTG reagent.

CC1(C)CCC(CN2CCN(c3ccc(C(=O)NS(=O)(=O)c4ccc(NCC5CCOCC5)c([N+](=O)[O-])c4)c(Oc4cnc5[nH]ccc5c4)c3)CC2)=C(c2ccc(Cl)cc2)C1 [Venetoclax, venetoclax]
inhibition at 0.004572 µM (Z-138 cells; Homo sapiens, Z-138, Venetoclax 0.004572 μM, Day-3): 7.4% | inhibition at 0.013717 µM (Z-138 cells; Homo sapiens, Z-138, Venetoclax 0.013717 μM, Day-3): 18.9% | inhibition at 0.041152 µM (Z-138 cells; Homo sapiens, Z-138, Venetoclax 0.041152 μM, Day-3): 35.6% | inhibition at 0.123457 µM (Z-138 cells; Homo sapiens, Z-138, Venetoclax 0.123457 μM, Day-3): 49.8% | inhibition at 0.37037 µM (Z-138 cells; Homo sapiens, Z-138, Venetoclax 0.370370 μM, Day-3): 63.8% | inhibition at 1.11111 µM (Z-138 cells; Homo sapiens, Z-138, Venetoclax 1.111111 μM, Day-3): 75.6% | inhibition at 3.33333 µM (Z-138 cells; Homo sapiens, Z-138, Venetoclax 3.333333 μM, Day-3): 90.5% | inhibition at 10 µM (Z-138 cells; Homo sapiens, Z-138, Venetoclax 10.000000 μM, Day-3): 99.7% | inhibition at 30 µM (Z-138 cells; Homo sapiens, Z-138, Venetoclax 30.000000 μM, Day-3): 99.9% | % Inhibition in proliferation (Z-138 cells; Venetoclax 0.000006 μM + Compound-44A 0.0 μM): −3.0% | % Inhibition of proliferation (Z-138 cells; Venetoclax 0.000006 μM, Day-3): 1.6% and −2.7% and −8.2% | % Inhibition in proliferation (Z-138 cells; Venetoclax 0.000019 μM + Compound-44A 0.0 μM): −10.0% | % Inhibition in proliferation (Z-138 cells; Venetoclax 0.000169 μM + Compound-44A 0.0 μM): −9.0% | % Inhibition in proliferation (Z-138 cells; Venetoclax 0.000508 μM + Compound-44A 0.0 μM): −10.0% | % Inhibition in proliferation (Z-138 cells; Venetoclax 0.001524 μM + Compound-44A 0.0 μM): −0.2% | % Inhibition in proliferation (Z-138 cells; Venetoclax 0.004572 μM + Compound-44A 0.0 μM): 8.0% | % Inhibition of proliferation (Z-138 cells; Venetoclax 0.004572 μM, Day-3): 6.3% and 11.2% | % Inhibition in proliferation (Z-138 cells; Venetoclax 0.013717 μM + Compound-44A 0.0 μM): 19.0% | % Inhibition of proliferation (Z-138 cells; Venetoclax 0.013717 μM, Day-3): 19.7% | % Inhibition in proliferation (Z-138 cells; Venetoclax 0.041152 μM + Compound-44A 0.0 μM): 33.0% | % Inhibition of proliferation (Z-138 cells; Venetoclax 0.041152 μM, Day-3): 29.6% and 34.7% | % Inhibition in proliferation (Z-138 cells; Venetoclax 0.123457 μM + Compound-44A 0.0 μM): 53.0% | % Inhibition of proliferation (Z-138 cells; Venetoclax 0.123457 μM, Day-3): 53.8% and 55.1% | % Inhibition in proliferation (Z-138 cells; Venetoclax 0.370370 μM + Compound-44A 0.0 μM): 65.0% | % Inhibition of proliferation (Z-138 cells; Venetoclax 0.370370 μM, Day-3): 65.2% and 66.6% | % Inhibition in proliferation (Z-138 cells; Venetoclax 1.111111 μM + Compound-44A 0.0 μM): 76.0% | % Inhibition of proliferation (Z-138 cells; Venetoclax 1.111111 μM, Day-3): 73.5% and 78.1% | % Inhibition in proliferation (Z-138 cells; Venetoclax 3.333333 μM + Compound-44A 0.0 μM): 92.0% | % Inhibition of proliferation (Z-138 cells; Venetoclax 3.333333 μM, Day-3): 91.6% and 92.6% | % Inhibition in proliferation (Z-138 cells; Venetoclax 10.0 μM + Compound-44A 0.0 μM): 100.0% | % Inhibition of proliferation (Z-138 cells; Venetoclax 10.000000 μM, Day-3): 99.8% and 100% | % Inhibition in proliferation (Z-138 cells; Venetoclax 30.0 μM + Compound-44A 0.0 μM): 100.0% | % Inhibition of proliferation (Z-138 cells; Venetoclax 30.000000 μM, Day-3): 100.1% | % Inhibition in proliferation (Z-138 cells; Venetoclax […] + Compound-44A 0.0 μM): −10.0%

C[C@]12CC[C@@H]3c4ccc(O)cc4C[C@@H](CCCCCCCCC[S+]([O-])CCCC(F)(F)C(F)(F)F)[C@H]3[C@@H]1CC[C@@H]2O (stereo partly shown) [Fulvestrant, fulvestrant]
% Inhibition in proliferation (MCF-7 cells; Fulvestrant 0.000000164 nM + Compound-44A 0.00 nM, 6 days): 2.8% | % Inhibition of proliferation (MCF-7 cells; Fulvestrant 0.000000164 nM, Day-6): 0.6% and 2.7% and 4.9% | % Inhibition in proliferation (MCF-7 cells; Fulvestrant 0.000000819 nM + Compound-44A 0.00 nM, 6 days): 10.4% | % Inhibition in proliferation (MCF-7 cells; Fulvestrant 0.000004096 nM + Compound-44A 0.00 nM, 6 days): 5.0% | % Inhibition of proliferation (MCF-7 cells; Fulvestrant 0.000004096 nM, Day-6): 6.6% and 7.7% and 0.7% | % Inhibition in proliferation (MCF-7 cells; Fulvestrant 0.00002048 nM + Compound-44A 0.00 nM, 6 days): 7.1% | % Inhibition of proliferation (MCF-7 cells; Fulvestrant 0.00002048 nM, Day-6): 7.2% and 5.9% | % Inhibition in proliferation (MCF-7 cells; Fulvestrant 0.0001024 nM + Compound-44A 0.00 nM, 6 days): 0.9% | % Inhibition of proliferation (MCF-7 cells; Fulvestrant 0.0001024 nM, Day-6): 4.2% and −1.2% and −0.1% | % Inhibition in proliferation (MCF-7 cells; Fulvestrant 0.000512 nM + Compound-44A 0.00 nM, 6 days): 7.5% | % Inhibition of proliferation (MCF-7 cells; Fulvestrant 0.000512 nM, Day-6): 3.2% and 7.4% and 11.8% | % Inhibition in proliferation (MCF-7 cells; Fulvestrant 0.00256 nM + Compound-44A 0.00 nM, 6 days): 3.4% | % Inhibition in proliferation (MCF-7 cells; Fulvestrant 0.0128 nM + Compound-44A 0.00 nM, 6 days): 1.5% | % Inhibition in proliferation (MCF-7 cells; Fulvestrant 0.064 nM + Compound-44A 0.00 nM, 6 days): −1.2% | % Inhibition of proliferation (MCF-7 cells; Fulvestrant 0.064 nM, Day-6): 3.9% and −2.5% and −5% | % Inhibition in proliferation (MCF-7 cells; Fulvestrant 0.32 nM + Compound-44A 0.00 nM, 6 days): 24.2% | % Inhibition of proliferation (MCF-7 cells; Fulvestrant 0.32 nM, Day-6): 27.7% and 23.3% | % Inhibition in proliferation (MCF-7 cells; Fulvestrant 1.6 nM + Compound-44A 0.00 nM, 6 days): 79.8% | % Inhibition of proliferation (MCF-7 cells; Fulvestrant 1.6 nM, Day-6): 78.6% and 80% | % Inhibition in proliferation (MCF-7 cells; Fulvestrant 8 nM + Compound-44A 0.00 nM, 6 days): 87.5% | % Inhibition of proliferation (MCF-7 cells; Fulvestrant 8 nM, Day-6): 88.4% and 86.3% | % Inhibition in proliferation (MCF-7 cells; Fulvestrant 40 nM + Compound-44A 0.00 nM, 6 days): 86.9% | % Inhibition of proliferation (MCF-7 cells; Fulvestrant 40 nM, Day-6): 86% | % Inhibition in proliferation (MCF-7 cells; Fulvestrant 1000 nM + Compound-44A 0.00 nM, 6 days): 88.7% | % Inhibition of proliferation (MCF-7 cells; Fulvestrant 1000 nM, Day-6): 90.2% | % Inhibition in proliferation (MCF-7 cells; Fulvestrant 3000 nM + Compound-44A 0.00 nM, 6 days): 90.0% | % Inhibition of proliferation (MCF-7 cells; Fulvestrant 3000 nM, Day-6): 90.6% and 89.5% | % Inhibition in proliferation (MCF-7 cells; Fulvestrant 10000 nM + Compound-44A 0.00 nM, 6 days): 95.0% | % Inhibition of proliferation (MCF-7 cells; Fulvestrant 10000 nM, Day-6): 95.7% and 95.1% | inhibition at 20.48 fM (MCF-7 cells; Homo sapiens, MCF7, Fulvestrant 0.00002048 nM, Day-6): 8.1% | inhibition at 0.00032 µM (MCF-7 cells; Homo sapiens, MCF7, Fulvestrant 0.32 nM, Day-6): 21.6% | inhibition at 0.0016 µM (MCF-7 cells; Homo sapiens, MCF7, Fulvestrant 1.6 nM, Day-6): 80.9% | inhibition at 0.008 µM (MCF-7 cells; Homo sapiens, MCF7, Fulvestrant 8 nM, Day-6): 87.8% | inhibition at 0.04 µM (MCF-7 cells; Homo sapiens, MCF7, Fulvestrant 40 nM, Day-6): 85.9% | inhibition at 0.2 µM (MCF-7 cells; Homo sapiens, MCF7, Fulvestrant 200 nM, Day-6): 85.8% | inhibition at 1 µM (MCF-7 cells; Homo sapiens, MCF7, Fulvestrant 1000 nM, Day-6): 88.8% | inhibition at 3 µM (MCF-7 cells; Homo sapiens, MCF7, Fulvestrant 3000 nM, Day-6): 89.9% | inhibition at 10 µM (MCF-7 cells; Homo sapiens, MCF7, Fulvestrant 10000 nM, Day-6): 94.3% | inhibition of proliferation in MCF-7 cells (MCF-7 cells; single agent, serial dilutions, 6 days): dose dependent inhibition of proliferation

From patent US20240277722A1, “CANCER THERAPY USING A COMBINATION OF CDK7 INHIBITOR WITH AN ANTI-CANCER AGENT” (Aurigene Oncology Limited, priority 2021, published 2024)
